How the values were obtained:
[1] = Clearance of intravenously injected JP4-039 measured by EPR; assay type: in vivo, mouse; design: dose or concentration left out as unconfirmed
From the text: FIGS. 13A-13B. Pharmacokinetics of clearance of JP4-039 intravenously injected into C57BL/6JHNsd mice in (FIG. 13A) plasma and (FIG. 13B) lung. […] Serum samples were collected and assayed. Each symbol represents an individual mouse. The methods for assay of nitroxide by EPR have been published previously (Borisenko G G, et al. J Am Chem Soc 4(30): 9221-9232, 2004 and Jiang J, et al. A mitochondria-targeted triphenylphosphonium-conjugated nitroxide functions as a radioprotector/mitigator. Radiat Res 172(6): 706-717, 2009).
Measurement of JP4-039 nitroxide in serum and in tissues by electron paramagnetic resonance. Electron paramagnetic resonance (EPR) spectra of nitroxide radicals in cells or in mitochondrial fractions were recorded after mixing with acetonitrile (1:1 v/v) after 5 min incubation with 2 mM K3Fe(CN)6 using a JEOL-RE1XEPR spectrometer (JEOL, USA, Inc., Peabody, Mass., USA) under the following conditions: 3350 G center field, 25 G scan range, 0.79 G field modulation, 20 mW microwave power, 0.1 s time constant, 4 min scan time. Under these experimental conditions, nitroxides were not detectably oxidized by […] to EPR-silent oxoamminium cations. Mitochondria-enriched fractions were obtained by differential centrifugation. […] Partitioning efficiency was calculated as a percentage of the initial signal. […] After that, samples were centrifuged at 10,000 g for 5 min, and the pellets washed twice with the incubation buffer and analyzed by EPR as described previously (Borisenko G G, et al. Nitroxides scavenge myeloperoxidase-catayzed thiyl radicals in model systems and in cells. J Am Chem Soc 4(30): 9221-9232, 2004 and Jiang J, et al. A mitochondria-targeted triphenylphosphonium-conjugated nitroxide functions as a radioprotector/mitigator. Radiat Res 172(6): 706-717, 200938-39).
Intravenous JP4-039 systemic pharmacokinetics and intraesophageal formulation mediated delivery to esophagus. […] JP4-039 was cleared from plasma by 10 min, but was detected in lung (and intestine) for over 30 minutes.

[2] = JP4-039 uptake in normal tissue and orthotopic tumors after intraesophageal administration (EPR); assay type: in vivo, mouse
Protocol: Lastly, to determine whether JP4-039 was taken up by other tissue, esophagus, lung orthotopic tumor, liver, and peripheral blood samples were taken 10, 30, and 60 minutes after intraesophageal administration of the compound. Samples were snap-frozen on dry ice and JP4-039 content was quantified by EPR analysis.
To determine if the orally-administered JP4-039 also reached other tissues and orthotopic tumors, esophagus, peripheral blood, bone marrow, liver, and 3LL orthotopic tumors were harvested at 10, 30, and 60 minutes after intraesophageal administration of JP4-039, followed by quantification by EPR. […] JP4-039 levels in peripheral blood and orthotopic tumor peaked at 30 minutes at 51.1 and 276.0 pmol/mg protein, respectively. […] Lower levels of JP4-039 were detected in bone marrow up to 60 minutes after drug swallow compared to levels in liver and tumor tissue.

[3] = intraesophageal, F15 formulation

With `CC(C)C[C@@H](/C=C/CC(=O)NC1CC(C)(C)N([O])C(C)(C)C1)NC(=O)OC(C)(C)C` [JP4-039, TEMPO-4-yl-(S,E)-5-(tert-butoxycarbonylamino)-7-methyloct-3-enamide] the “time detected in intestine” value [1] was “over 30 minutes”, the “time detected in lung” value [1] was “over 30 minutes” and the “time by which cleared from plasma” value ([1]; intravenous in 100 μl) was no more than 10 min. The “time of peak level in liver” value [2, 3] was 10 min, the “time of peak level in orthotopic tumor” value [2, 3] was 30 min and the “time of peak level in peripheral blood” value [2, 3] was 30 min. For the same molecule, the “peak JP4-039 level in orthotopic tumor” value ([2]; intraesophageal, F15 formulation, 3LL tumor, at 30 minutes, EPR) was 276.0 pmol/mg protein, the “peak JP4-039 level in liver” value ([2]; intraesophageal, F15 formulation, at 10 minutes, EPR) was 122/2 and the “peak JP4-039 level in peripheral blood” value ([2]; intraesophageal, F15 formulation, at 30 minutes, EPR) was 51.1 pmol/mg protein. The “JP4-039 level in bone marrow compared to liver and tumor tissue” value ([2]; up to 60 minutes after drug swallow) was “Lower levels”.

— US20190210969A1, “INTRAESOPHAGEAL ADMINISTRATION OF TARGETED NITROXIDE AGENTS FOR PROTECTION AGAINST IONIZING IRRADIATION-INDUCED ESOPHAGITIS” (University of Pittsburgh - Of the Commonwealth System of …, priority 2010, published 2019)
